Results taken from patent US20060148023A1, “Affinity labeling of serine proteases for simultaneous detection of multiple serine protease activity levels” (priority 2001, published 2006).

Tests used:
Format in all cases: cell-based
Conditions in all cases: for FLCK RFU: green, ex 488 nm/em 535 nm; for FLCK RFU / SFCK RFU: average of 4 wells; for SFCK RFU: red, ex 590 nm/em 620 nm
Jurkat cells = assay: FLISP staining of Jurkat cells, fluorescence plate reader
Experimental: (§1) Preparation of reagents: Fluorescent inhibitors of serine proteases (FLISP) reagents, 5(6)-Carboxyfluoresceinyl-L-phenylalanylchloromethyl ketone (FFCK), 5(6)-carboxyfluoresceinyl-L-leucylchloromethyl ketone (FLCK), Sulforhodaminyl 101 -L-phenylalanylchloromethyl ketone (SFCK) and Sulforhodaminyl 101 -L-leucylchloromethyl ketone (SLCK) are dissolved initially in dimethyl sulfoxide (DMSO; Sigma) to yield a 10 mM concentration. Aliquots are made from this stock solution and stored frozen at −20° C. protected from light. The reagent stock of the FLCK is then diluted directly into the cell culture media to give a 1× working reagent concentration of 20 μM and the reagent stock of the SFCK is then diluted directly into the cell culture media to give a 1× working reagent concentration of 5 μM. Dilution of the reagent into aqueous (cell culture) media is done just prior to cell exposure to preserve the labile chloromethyl ketone reactivity of FLISP reagent.
(§2) Cells: Jurkat, HL-60 and U937 cells were obtained from American Type Culture Collection (ATCC; Rockville, Md.). They were cultured in 25 mL FALCON flasks (Becton Dickinson Co., Franklin Lakes, N.J.) using RPMI 1640 supplemented with 10% fetal calf serum, 100 units/mL penicillin, […] and 2 mM L-glutamine (all from Gibco/BRL Life Technologies, Inc., Grand Island, N.Y.) in a humidified incubator set to maintain 37.5° C. and 5 % CO2. At the onset of experiments, the cells were at an exponential and asynchronous growth phase with fewer than 5×10^5 cells per/mL in culture. To induce apoptosis the cells were treated with 0.15 μM DNA topoisomerase I inhibitor camptothecin (CPT; Sigma Chemical Co., St. Louis, Mo.) for 3 hours.
(§3) Cell staining and evaluation by fluorescence plate reader: The Jurkat, HL-60 and U937 cells from the untreated or CPT treated cultures were centrifuged (200 g, 5 min) and resuspended in PBS at approximately 10^6 cells per 5 ml volume. FLISP staining solutions were prepared by diluting 10 μL of a green 10 mM FLISP reagent stock solution (FLCK) and 2.5 μL of a red 10 mM FLISP reagent stock solution (SFCK) into 5 mL of culture medium yielding a final green FLISP concentration of 20 μM and a final red FLISP concentration of 5 μM. When detecting multiple serine proteases use different CMK labeled peptides i.e. FLCK and SFCK or FFCK and SLCK. The FLISP staining solution was removed by washing the cells in wash buffer (0.5% BSA in PBS +0.05% NaN3, pH 7.4) and centrifuging for 5 minutes at 200 g. The washing step was repeated two more times with fresh wash buffer. After the final wash the cells were resuspended in 5 mL wash buffer and 100 μL per were added to a 96 well black microtiter plate (4 wells were used for each sample). Green and red fluorescence were measured simultaneously on a Spectra MAX Gemini XS fluorescence plate reader (Molecular Devices). Green cell fluorescence (FLCK) was then measured using a 488 nm excitation, 535 nm emission with a 515 nm cutoff. Red cell fluorescence (SFCK) was then measured using a 590 nm excitation, 620 emission with a 610 nm cutoff.

HL-60 cells = assay: FLISP staining of HL-60 cells, fluorescence plate reader
Experimental: as §1, §2, §3

U937 cells = assay: FLISP staining of U937 cells, fluorescence plate reader
Experimental: as §1, §2, §3

| Molecule | FLCK RFU (Jurkat cells; Jurkat I (induced, apoptotic; 0.15 μM CPT 3 h), 20 μM) | FLCK RFU (Jurkat cells; Jurkat NI (non-induced), 20 μM) | FLCK Ratio of I/NI (Jurkat cells; Jurkat, induced/non-induced, 20 μM) | FLCK Ratio of I/NI (HL-60 cells; HL-60, induced/non-induced, 20 μM) | FLCK RFU (HL-60 cells; HL-60 I (induced, apoptotic; 0.15 μM CPT 3 h), 20 μM) | FLCK RFU (HL-60 cells; HL-60 NI (non-induced), 20 μM) | FLCK Ratio of I/NI (U937 cells; U937, induced/non-induced, 20 μM) | FLCK RFU (U937 cells; U937 I (induced, apoptotic; 0.15 μM CPT 3 h), 20 μM) | FLCK RFU (U937 cells; U937 NI (non-induced), 20 μM) | SFCK RFU (Jurkat cells; Jurkat I (induced, apoptotic; 0.15 μM CPT 3 h), 5 μM) | SFCK RFU (Jurkat cells; Jurkat NI (non-induced), 5 μM) | SFCK Ratio of I/NI (Jurkat cells; Jurkat, induced/non-induced, 5 μM) | SFCK Ratio of I/NI (HL-60 cells; HL-60, induced/non-induced, 5 μM) | SFCK RFU (HL-60 cells; HL-60 I (induced, apoptotic; 0.15 μM CPT 3 h), 5 μM) | SFCK RFU (HL-60 cells; HL-60 NI (non-induced), 5 μM) | SFCK Ratio of I/NI (U937 cells; U937, induced/non-induced, 5 μM) | SFCK RFU (U937 cells; U937 I (induced, apoptotic; 0.15 μM CPT 3 h), 5 μM) | SFCK RFU (U937 cells; U937 NI (non-induced), 5 μM) |
| --- | --- | --- | --- | --- | --- | --- | --- | --- | --- | --- | --- | --- | --- | --- | --- | --- | --- | --- |
| 5(6)-carboxyfluoresceinyl-L-leucylchloromethyl ketone [FLCK] | 13.291 RFU | 3.702 RFU | 3.59 | 1.59 | 7.552 RFU | 4.748 RFU | 3.70 | 8.208 RFU | 2.218 RFU | – | – | – | – | – | – | – | – | – |
| CCN(CC)c1ccc2c(-c3ccc(S(=O)(=O)NC(Cc4ccccc4)C(=O)CCl)cc3S(=O)(=O)[O-])c3ccc(=[N+](CC)CC)cc-3oc2c1 [SFCK, Sulforhodaminyl-L-phenylalanylchloromethyl ketone] | – | – | – | – | – | – | – | – | – | 74.348 RFU | 30.596 RFU | 2.43 | 1.28 | 49.045 RFU | 38.301 RFU | 1.82 | 44.245 RFU | 24.341 RFU |
